Values quoted from earlier work in patent US12029723B2, “Compounds and forms of treatment for female sexual disorders” (GTO PHARMA, LLC., priority 2015, dated 2024).

Key:
[1] = tested on: pre-menopausal women with SIAD related disorders
[2] = tested on: liver; conditions: a person taking 400 mg daily in herbal substitutes for weight loss

Row | Molecule | share of women with the benefit ([1]; 100 mg daily for a minimum of 28 days) [%] | effect on GPPD (vestibulodynia, dyspareunia) or FOD ([1]; in vivo) | median placebo-corrected increase in satisfying sexual events (SSEs) ([1]; median baseline about 2-3 SSEs per month, six month period) | sedation or hypotension-related adverse events ([1]; vs 9.4% placebo) [%] | liver injury [2]
1 | O=c1[nH]c2ccccc2n1CCN1CCN(c2cccc(C(F)(F)F)c2)CC1 [Flibanserin, 2H-benzimidazol-2-one, 1,3-dihydro-1-[2-[4-[3(tri-fluoromethyl)phenyl]-1-piperazinyl]ethyl]] | 18 | no therapeutic effect at all | 0.5-1.0 SSEs per month | 28.6 | –
2 | Epigallocatechin-3-gallate [EGCG] | – | – | – | – | acute but reversible liver failure
